Target: T1, NEDD8-activating enzyme E1 catalytic subunit (Homo sapiens, UniProt Q8TBC4)
T1 sequence (Q8TBC4 whole entry): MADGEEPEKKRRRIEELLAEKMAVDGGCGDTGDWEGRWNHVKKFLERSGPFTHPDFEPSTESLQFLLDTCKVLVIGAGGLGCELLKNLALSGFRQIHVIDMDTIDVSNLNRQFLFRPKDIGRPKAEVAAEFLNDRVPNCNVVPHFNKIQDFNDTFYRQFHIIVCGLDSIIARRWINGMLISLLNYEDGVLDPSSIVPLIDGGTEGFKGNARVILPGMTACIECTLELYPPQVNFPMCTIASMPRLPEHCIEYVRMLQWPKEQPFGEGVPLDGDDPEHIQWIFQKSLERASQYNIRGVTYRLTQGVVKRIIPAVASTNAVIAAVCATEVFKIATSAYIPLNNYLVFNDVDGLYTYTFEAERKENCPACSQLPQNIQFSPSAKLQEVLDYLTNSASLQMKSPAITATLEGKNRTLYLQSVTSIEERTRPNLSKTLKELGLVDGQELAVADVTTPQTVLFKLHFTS
Experiment: Inhibition of recombinant human untagged NAEalpha/N-terminal His-tagged NAEbeta expressed in Bac-to-Bac expression system using FLAG-tagged NEDD8 as substrate after 90 mins in presence of GST-tagged Ubc12 by HTRF assay

Row | SMILES | IC50
1 | CCc1cn([C@H]2C[C@H](O)[C@@H](COS(N)(=O)=O)O2)c2ncnc(CCc3ccccc3)c12 | ≤ 1 µM
2 | COCCNc1ncnc2c1ncn2[C@@H]1O[C@H](CNS(N)(=O)=O)[C@@H](O)[C@H]1O | ≤ 1 µM
3 | NS(=O)(=O)NC[C@H]1O[C@@H](n2cnc3c(NCc4csc5ccccc45)ncnc32)[C@H](O)[C@@H]1O | ≤ 1 µM
4 | NS(=O)(=O)OC[C@H]1O[C@@H](n2cnc3c(N[C@H]4CCc5ccccc54)nccc32)[C@H](O)[C@@H]1O | 0.1 to 1 µM
5 | NS(=O)(=O)OC[C@H]1O[C@@H](n2cnc3c(C#Cc4ccccc4)ncnc32)[C@H](O)[C@@H]1O | 0.1 to 1 µM
6 | NS(=O)(=O)NC[C@H]1O[C@@H](n2cnc3c(N[C@@H]4c5ccccc5C[C@@H]4O)ncnc32)[C@H](O)[C@@H]1O | 0.1 to 1 µM
7 | NS(=O)(=O)OC[C@H]1O[C@@H](n2ccc3c(N[C@H]4CCc5ccccc54)ncnc32)C[C@@H]1O | 0.1 to 1 µM
8 | NS(=O)(=O)OC[C@H]1O[C@@H](n2cnc3c(Nc4ccc(Cl)cc4)ncnc32)[C@H](O)[C@@H]1O | 0.1 to 1 µM
9 | NS(=O)(=O)NC[C@H]1O[C@@H](n2cnc3c(C#Cc4ccccc4)ncnc32)[C@H](O)[C@@H]1O | 0.1 to 1 µM
10 | NS(=O)(=O)OC[C@H]1O[C@@H](n2cnc3c(NCc4ccc(OC(F)(F)F)cc4)ncnc32)[C@H](O)[C@@H]1O | 0.1 to 1 µM
11 | NS(=O)(=O)OC[C@H]1O[C@@H](n2cnc3c(CN4C(=O)c5ccccc5C4=O)ncnc32)[C@H](O)[C@@H]1O | 0.1 to 1 µM
12 | NS(=O)(=O)OC[C@H]1O[C@@H](n2cnc3c(NC(=O)c4ccc(Cl)cc4)ncnc32)[C@H](O)[C@@H]1O | 0.1 to 1 µM
13 | NS(=O)(=O)OC[C@H]1O[C@@H](n2cnc3c(N[C@H]4CCc5ccccc54)ncnc32)[C@@H](O)[C@@H]1O | 0.1 to 1 µM
14 | NS(=O)(=O)OC[C@H]1O[C@@H](n2cnc3c(CNC(=O)c4ccccc4)ncnc32)[C@H](O)[C@@H]1O | 0.1 to 1 µM
15 | NS(=O)(=O)OC[C@H]1O[C@@H](n2cnc3c(Cc4ccc(F)cc4)ncnc32)[C@H](O)[C@@H]1O | ≤ 1 µM
16 | NS(=O)(=O)OC[C@H]1O[C@@H](n2cnc3c(NC(=O)c4ccccc4)ncnc32)[C@H](O)[C@@H]1O | 0.1 to 1 µM
17 | NS(=O)(=O)OC[C@H]1O[C@@H](n2cnc3c(C#Cc4ccc(F)cc4)ncnc32)[C@H](O)[C@@H]1O | 0.1 to 1 µM
18 | NS(=O)(=O)OC[C@H]1O[C@@H](n2cnc3c(NCc4ccccc4)ncnc32)C[C@@H]1O | 0.1 to 1 µM
19 | Cc1cnc(CNc2ncnc3c2ncn3[C@@H]2O[C@H](CNS(N)(=O)=O)[C@@H](O)[C@H]2O)cn1 | ≤ 1 µM
20 | NS(=O)(=O)NC[C@H]1O[C@@H](n2cnc3c(NCCOc4ccccc4)ncnc32)[C@H](O)[C@@H]1O | ≤ 1 µM
21 | NS(=O)(=O)OC[C@H]1O[C@@H](n2cnc3c(CCc4ccccc4)ncnc32)[C@H](O)[C@@H]1O | 0.1 to 1 µM
22 | COCCNc1ncnc2c1ncn2[C@@H]1O[C@H](COS(N)(=O)=O)[C@@H](O)[C@H]1O | 0.1 to 1 µM
23 | NS(=O)(=O)OC[C@H]1O[C@@H](n2cnc3c(NS(=O)(=O)c4ccccc4)ncnc32)[C@H](O)[C@@H]1O | 0.1 to 1 µM

Row | SMILES | IC50
24 | NS(=O)(=O)OC[C@H]1O[C@@H](n2cnc3c(NCc4ccccc4)ncnc32)[C@H](O)[C@@H]1O | 0.1 to 1 µM
25 | COc1ccccc1C(=O)NCc1ncnc2c1ncn2[C@@H]1O[C@H](COS(N)(=O)=O)[C@@H](O)[C@H]1O | 0.1 to 1 µM
26 | NS(=O)(=O)OC[C@H]1O[C@@H](n2cnc3c(NCCN4CCOCC4)ncnc32)[C@H](O)[C@@H]1O | 0.1 to 1 µM
27 | NS(=O)(=O)OC[C@H]1O[C@@H](n2cnc3c(-c4ccccc4)ncnc32)[C@H](O)[C@@H]1O | 0.1 to 1 µM
28 | CCc1ncnc2c1ncn2[C@@H]1O[C@H](COS(N)(=O)=O)[C@@H](O)[C@H]1O | 0.1 to 1 µM
29 | CN(c1ncnc2c1ncn2[C@@H]1O[C@H](COS(N)(=O)=O)[C@@H](O)[C@H]1O)[C@H]1CCc2ccccc21 | 0.1 to 1 µM
30 | NS(=O)(=O)OC[C@H]1C[C@@H](n2cnc3c(N[C@H]4CCc5ccccc54)ncnc32)[C@H](O)[C@@H]1O | 0.1 to 1 µM
31 | NS(=O)(=O)OC[C@H]1O[C@@H](n2cnc3c(N[C@H]4CCc5ccccc54)nc(Cl)nc32)[C@H](O)[C@@H]1O | 0.1 to 1 µM
32 | NS(=O)(=O)NC[C@H]1O[C@@H](n2cnc3c(N[C@H]4CCc5ccccc54)ncnc32)[C@H](O)[C@@H]1O | 0.1 to 1 µM
33 | NS(=O)(=O)OC[C@H]1O[C@@H](n2ccc3c(NC(=O)c4ccccc4)ncnc32)C[C@@H]1O | 0.1 to 1 µM
34 | NS(=O)(=O)OC[C@H]1O[C@@H](n2cnc3c(C#CC4CC4)ncnc32)[C@H](O)[C@@H]1O | 0.1 to 1 µM
35 | COc1cccc(CNc2ncnc3c2ncn3[C@@H]2O[C@H](CNS(N)(=O)=O)[C@@H](O)[C@H]2O)c1 | 0.1 to 1 µM
36 | NS(=O)(=O)OC[C@H]1O[C@@H](n2cnc3c(NC(=O)Nc4ccccc4)ncnc32)[C@H](O)[C@@H]1O | 0.1 to 1 µM
37 | NS(=O)(=O)OC[C@H]1O[C@@H](n2cnc3c(C#Cc4ccccc4Cl)ncnc32)[C@H](O)[C@@H]1O | 0.1 to 1 µM
38 | COc1cccc(CNc2ncnc3c2ncn3[C@@H]2O[C@H](COS(N)(=O)=O)[C@@H](O)[C@H]2O)c1 | 0.1 to 1 µM
39 | NS(=O)(=O)OC[C@H]1O[C@@H](n2cnc3c(N[C@H](CO)c4ccccc4)ncnc32)[C@H](O)[C@@H]1O | 0.1 to 1 µM
40 | NS(=O)(=O)OC[C@H]1O[C@@H](n2cnc3c(C#Cc4cccc(C(F)(F)F)c4)ncnc32)[C@H](O)[C@@H]1O | 0.1 to 1 µM
41 | CO[C@H]1[C@H](O)[C@@H](COS(N)(=O)=O)O[C@H]1n1cnc2c(N[C@H]3CCc4ccccc43)ncnc21 | 0.1 to 1 µM
42 | NS(=O)(=O)OC[C@H]1O[C@@H](n2cnc3c(C#Cc4ccc(Br)cc4)ncnc32)[C@H](O)[C@@H]1O | 0.1 to 1 µM
43 | NS(=O)(=O)NC[C@H]1O[C@@H](n2cnc3c(N[C@@H](CO)c4ccccc4)ncnc32)[C@H](O)[C@@H]1O | 0.1 to 1 µM
44 | NS(=O)(=O)OC[C@H]1O[C@@H](n2cnc3c(CN4Cc5ccccc5C4)ncnc32)[C@H](O)[C@@H]1O | 0.1 to 1 µM
45 | NS(=O)(=O)OC[C@H]1O[C@@H](n2cnc3c(NC(=O)c4ccc(F)cc4)ncnc32)[C@H](O)[C@@H]1O | 0.1 to 1 µM

— ChEMBL document CHEMBL3880402, “Inhibitors of E1 activating enzymes” (2006)
